Consider 30 compounds from patent publication US9376418B2, “Substituted pyridine spleen tyrosine kinase (SYK) inhibitors” (Merck Sharp & Dohme Corp., priority 2012, dated 2016).

SMILES strings stand for the structures. Where only a bound is given, the exact number is not on record here.

In this test the target is T1, recombinant human GST-SYK (Homo sapiens, UniProt P43405).
T1 construct: purchased Carna Biosciences 08-176
Put plainly: Homogeneous Time-Resolved Fluorescence (HTRF) assay for the recombinant human Syk enzyme. The format is biochemical. Conditions: HTRF assay, recombinant human GST-SYK; IC50 given as class symbols; read-out: rhSYK Activity. The protocol: Homogeneous Time-Resolved Fluorescence (HTRF) Assay for the Recombinant Human Syk Enzyme
A recombinant GST-hSYK fusion protein was used to measure potency of compounds to inhibit human Syk activity. The recombinant human GST-SYK (Carna Biosciences #08-176) ([…]) was incubated with various concentrations of the inhibitor diluted in DMSO (0.1% final concentration) for 10 minutes at room temperature in 15 mM Tris-HCl (pH 7.5), 0.01% tween 20, 2 mM DTT in 384 well plate format. To initiate the reaction the biotinylated substrate peptide (250 nM final concentration) that contains the phosphorylation site for Syk was added with magnesium (5 mM final concentration) and ATP (25 μM final concentration). Final volume of the reaction was 10 μL. Phosphorylation of the peptide was allowed to proceed for 45′ at room temperature. To quench the reaction and detect the phosphorylated product, 2 nM of a Europium-anti-phosphotyrosine antibody (Perkin Elmer #AD0161) and 70 nM SA-APC (Perkin-Elmer #CR130-100) were added together in 15 mM Tris pH 7.5, 40 mM EDTA, 0.01% tween 20. Final volume of the quenching solution was 10 μL. The resulting HTRF signal was measured after 30 minutes on an EnVision (Perkin-Elmer) reader using a time-resolved fluorescence protocol.
For orientation: TR-FRET usually uses a lanthanide donor and a delayed reading to cut background.
For the compound `Cc1cc(Nc2nccc(C(F)(F)F)n2)cc(-c2cncc(CCC(=O)O)c2)c1` [Example 2.86, 3-[5-(3-methyl-5-{[4-(trifluoromethyl)pyrimidin-2-yl]amino}phenyl)pyridin-3-yl]propanoic acid], the IC50 is under 0.1 µM.
For `Cc1cc(Nc2nccc(C(F)(F)F)n2)cc(-c2ccnc(NCC(=O)N(C)C)c2)c1` [Example 15.82, N,N-dimethyl-N~2~-[4-(3-methyl-5-{[4-(trifluoromethyl)pyrimidin-2-yl]amino}phenyl)pyridin-2-yl]glycinamide] the value was 0.1 to 1 µM; for `Cc1cc(Nc2nccc(C(F)(F)F)n2)cc(-c2ccc(N3CCCC(C(=O)O)C3)nc2)c1` (stereo not drawn) [Example 7.135, 1-[5-(3-methyl-5-{[4-(trifluoromethyl)pyrimidin-2-yl]amino}phenyl)pyridin-2-yl]piperidine-3-carboxylic acid], under 0.1 µM.
Next, `Cc1cc(Nc2nccc(C(F)(F)F)n2)cc(-c2ccc(N3CCN(CC(=O)O)CC3)nc2)c1` [Example 7.140, {4-[5-(3-methyl-5-{[4-(trifluoromethyl)pyrimidin-2-yl]amino}phenyl)pyridin-2-yl]piperazin-1-yl}acetic acid]: under 0.1 µM.
For `Cc1cc(Nc2nccc(C3CC3)n2)cc(-c2ccc(C(C)(O)[C@H]3CC[C@H](C(=O)O)CC3)nc2)c1` (stereo partly drawn) [Example 9.6, trans-4-(1-(5-(3-(4-cyclopropylpyrimidin-2-ylamino)-5-methylphenyl)pyridin-2-yl)-1-hydroxyethyl)cyclohexanecarboxylic acid] the value was under 0.1 µM.
Turning to `Cc1cc(Nc2nccc(C(F)(F)F)n2)cc(-c2ccc(NS(=O)(=O)CC(=O)O)nc2)c1` [Example 8.2, {[5-(3-Methyl-5-{[4-(trifluoromethyl)pyrimidin-2-yl]amino}phenyl)pyridin-2-yl]sulfamoyl}acetic acid], the IC50 was under 0.1 µM.
For `CCOC(=O)CCc1cccc(-c2cc(C)cc(Nc3nccc(C4CC4)n3)c2)n1` [Example 2.38, ethyl 3-(6-{3-[(4-cyclopropylpyrimidin-2-yl)amino]-5-methylphenyl}pyridin-2-yl)propanoate] the value was 0.1 to 1 µM.
For `Cc1cc(Nc2nccc(C(F)(F)F)n2)cc(-c2ccc(N3CC[C@H]3C(=O)O)nc2)c1` [Example 7.6, (2S)-1-[5-(3-methyl-5-{[4-(trifluoromethyl)pyrimidin-2-yl]amino}phenyl)pyridin-2-yl]azetidine-2-carboxylic acid] the value was under 0.1 µM; for `Cc1cc(Nc2nccc(C(F)(F)F)n2)cc(-c2ccnc(NCC3CCC(=O)N3)c2)c1` (stereo not drawn) [Example 15.83, 5-({[4-(3-methyl-5-{[4-(trifluoromethyl)pyrimidin-2-yl]amino}phenyl)pyridin-2-yl]amino}methyl)pyrrolidin-2-one], under 0.1 µM.
Next, `Cc1cc(Nc2nccc(C(F)(F)F)n2)cc(-c2ccc(CN3CCNC3=O)nc2)c1` [Example 17.1, 1-{[5-(3-Methyl-5-{[4-(trifluoromethyl)pyrimidin-2-yl]amino}phenyl)pyridin-2-yl]methyl}imidazolidin-2-one]: under 0.1 µM.
`Cc1cc(Nc2nccc(C(F)(F)F)n2)cc(-c2ccc(CCC(N)=O)nc2)c1` [Example 13.3, 3-[5-(3-Methyl-5-{[4-(trifluoromethyl)pyrimidin-2-yl]amino}phenyl)pyridin-2-yl]propanamide]: the IC50 was under 0.1 µM.
As to `CNC(=O)CNc1ccc(-c2cc(C)cc(Nc3nccc(C(F)(F)F)n3)c2)cn1` [Example 7.29, N-methyl-N~2~-[5-(3-methyl-5-{[4-(trifluoromethyl)pyrimidin-2-yl]amino}phenyl)pyridin-2-yl]glycinamide], the IC50 was under 0.1 µM.
For `Cc1cc(Nc2nccc(C(F)(F)F)n2)cc(-c2ccc(N3CCN(CCCC(=O)O)CC3)nc2)c1` [Example 7.139, 4-{4-[5-(3-methyl-5-{[4-(trifluoromethyl)pyrimidin-2-yl]amino}phenyl)pyridin-2-yl]piperazin-1-yl}butanoic acid] the value was under 0.1 µM.
For `CCC[C@@H](Nc1ccc(-c2cc(C)cc(Nc3nccc(C(F)(F)F)n3)c2)cn1)C(=O)O` [Example 7.107, N-[5-(3-methyl-5-{[4-(trifluoromethyl)pyrimidin-2-yl]amino}phenyl)pyridin-2-yl]-D-norvaline] the value was under 0.1 µM; for `Cc1cc(Nc2nccc(C(F)(F)F)n2)cc(-c2ccc(NC(C)(C#N)C(C)(C)C)nc2)c1` (stereo not drawn) [Example 7.115, 2,3,3-trimethyl-2-{[5-(3-methyl-5-{[4-(trifluoromethyl)pyrimidin-2-yl]amino}phenyl)pyridin-2-yl]amino}butanenitrile], 0.1 to 1 µM; for `Cc1cc(Nc2nccc(C(F)(F)F)n2)cc(-c2cnc3c(c2)CCN3)c1` [Example 2.47, N-[3-(2,3-dihydro-1H-pyrrolo[2,3-b]pyridin-5-yl)-5-methylphenyl]-4-(trifluoromethyl)pyrimidin-2-amine], under 0.1 µM.
Next, `CC(O)c1ccc(-c2cc(Nc3nccc(C(F)(F)F)n3)cc(C(=O)O)c2)cn1` (stereo not drawn) [Example 26.1, 3-[6-(1-Hydroxyethyl)pyridin-3-yl]-5-{[4-(trifluoromethyl)pyrimidin-2-yl]amino}benzoic acid]: 0.1 to 1 µM.
As to `Cc1cc(Nc2nccc(C)n2)cc(-c2ccc(C(C)(O)[C@H]3CC[C@H](C(=O)O)CC3)nc2)c1` (stereo partly drawn) [Example 9.23, trans-4-[1-hydroxy-1-(5-{3-methyl-5-[(4-methylpyrimidin-2-yl)amino]phenyl}pyridin-2-yl)ethyl]cyclohexanecarboxylic acid], the IC50 is under 0.1 µM.
Next, `Cc1cc(Nc2nccc(C(F)(F)F)n2)cc(-c2ccnc(NC(C)c3ccccn3)c2)c1` (stereo not drawn) [Example 15.34, N-(3-methyl-5-{2-[(1-pyridin-2-ylethyl)amino]pyridin-4-yl}phenyl)-4-(trifluoromethyl)pyrimidin-2-amine]: 0.1 to 1 µM; `CNC(=O)NCc1ccc(-c2cc(C)cc(Nc3nccc(C(F)(F)F)n3)c2)cn1` [Example 17.3, 1-methyl-3-{[5-(3-methyl-5-{[4-(trifluoromethyl)pyrimidin-2-yl]amino}phenyl)pyridin-2-yl]methyl}urea]: under 0.1 µM.
Consider `Cc1cc(Nc2nccc(C(F)(F)F)n2)cc(-c2ccc(N3CCCNCC3)nc2)c1` [Example 2.59, N-{3-[6-(1,4-diazepan-1-yl)pyridin-3-yl]-5-methylphenyl}-4-(trifluoromethyl)pyrimidin-2-amine], for which the IC50 is under 0.1 µM.
Turning to `Nc1cc(Nc2nccc(C(F)(F)F)n2)cc(-c2ccncc2)c1` [Example 6.4, 5-pyridin-4-yl-N-[4-(trifluoromethyl)pyrimidin-2-yl]benzene-1,3-diamine], the IC50 is under 0.1 µM.
For `Cc1cc(Nc2nccc(C(F)(F)F)n2)cc(-c2ccc(NC(C)(C#N)C(C)(C)C)nc2)c1` (stereo not drawn) [Example 18.3, 2,3,3-trimethyl-2-{[5-(3-methyl-5-{[4-(trifluoromethyl)pyrimidin-2-yl]amino}phenyl)pyridin-2-yl]amino}butanenitrile] the value was 0.1 to 1 µM; for `Cc1cc(Nc2nccc(C(F)(F)F)n2)cc(-c2ccc(N[C@H](Cc3csc4ccccc34)C(=O)O)nc2)c1` [Example 7.79, 3-(1-benzothiophen-3-yl)-N-[5-(3-methyl-5-{[4-(trifluoromethyl)pyrimidin-2-yl]amino}phenyl)pyridin-2-yl]-D-alanine], under 0.1 µM.
On to `Cc1cc(Nc2nccc(C(F)(F)F)n2)cc(-c2ccc(C(=O)N3CCS(=O)(=O)CC3)nc2)c1` [Example 16.55, N-(3-{6-[(1,1-dioxidothiomorpholin-4-yl)carbonyl]pyridin-3-yl}-5-methylphenyl)-4-(trifluoromethyl)pyrimidin-2-amine], for which the IC50 is under 0.1 µM.
For `Cc1cc(Nc2nccc(C(F)(F)F)n2)cc(-c2ccnc(NC3COC3)c2)c1` [Example 15.62, N-{3-methyl-5-[2-(oxetan-3-ylamino)pyridin-4-yl]phenyl}-4-(trifluoromethyl)pyrimidin-2-amine] the value was 0.1 to 1 µM.
For `CNC(=O)CCNc1cc(-c2cc(C)cc(Nc3nccc(C(F)(F)F)n3)c2)ccn1` [Example 15.78, N-methyl-N~3~-[4-(3-methyl-5-{[4-(trifluoromethyl)pyrimidin-2-yl]amino}phenyl)pyridin-2-yl]-beta-alaninamide] the value was 0.1 to 1 µM; for `Cc1cc(Nc2nccc(C(F)(F)F)n2)cc(-c2ccc(N[C@@H](CC(N)=O)C(=O)O)nc2)c1` [Example 7.94, N~2~-[5-(3-methyl-5-{[4-(trifluoromethyl)pyrimidin-2-yl]amino}phenyl)pyridin-2-yl]-L-asparagine], under 0.1 µM; for `Cc1cc(Nc2nccc(C(F)(F)F)n2)cc(-c2ccnc(NCc3cncn3C)c2)c1` [Example 15.38, N-[3-methyl-5-(2-{[(1-methyl-1H-imidazol-5-yl)methyl]amino}pyridin-4-yl)phenyl]-4-(trifluoromethyl)pyrimidin-2-amine], 0.1 to 1 µM.
Next, `COCC(Nc1ccc(-c2cc(C)cc(Nc3nccc(C(F)(F)F)n3)c2)cn1)C(=O)O` (stereo not drawn) [Example 7.76, O-methyl-N-[5-(3-methyl-5-{[4-(trifluoromethyl)pyrimidin-2-yl]amino}phenyl)pyridin-2-yl]serine]: under 0.1 µM.
